Test results published in patent US7932396B2, “2-pyridinylcycloalkylbenzamide derivatives and their use as fungicides” (Bayer Cropscience AG, priority 2005, dated 2011).

What was measured:
Alternaria brassicae = assay: In vivo test on Alternaria brassicae (leaf spot of crucifers) on radish plants; settings: 330 ppm; comparison compounds of WO 01/11965
Protocol: (§1) The active ingredients tested are prepared by homogenization in a mixture of DMSO (dimethylsulfoxid)/acetone/tween/water. This suspension is then diluted with water to obtain the desired active material concentration.
Radish plants (Pernot variety) in starter cups, sown on a 50/50 peat soil-pozzolana substrate and grown at 18-20° C., are treated at the cotyledon stage by spraying with the aqueous suspension described above.
Plants, used as controls, are treated with an aqueous solution not containing the active material.
After 24 hours, the plants are contaminated by spraying them with an aqueous suspension of Alternaria brassicae spores (40,000 spores per cm^3). The spores are collected from a 12-13-day-old culture.
The contaminated radish plants are incubated for 6-7 days at about 18° C., under a humid atmosphere.
Grading is carried out 6 to 7 days after the contamination, in comparison with the control plants.

Botrytis cinerea = assay: In vivo test on Botrytis cinerea (gherkin grey mould) on gherkin plants; settings: 330 ppm; comparison compounds of WO 01/11965
Protocol: as §1
Gherkin plants (Petit Vert de Paris variety) in starter cups, sown on a 50/50 peat soil-pozzolana substrate and grown at 18-20° C., are treated at the cotyledon Z11 stage by spraying with the aqueous suspension described above. Plants, used as controls, are treated with an aqueous solution not containing the active material.
After 24 hours, the plants are contaminated by depositing drops of an aqueous suspension of Botrytis cinerea spores (150,000 spores per ml) on upper surface of the leaves. The spores are collected from a 15-day-old culture and are suspended in a nutrient solution composed of: • 20 g/L of gelatin • 50 g/L of cane sugar • 2 g/L of NH4NO3 • 1 g/L of KH2PO4
The contaminated gherkin plants are settled for 5/7 days in a climatic room at 15-11° C. (day/night) and at 80% relative humidity.
Grading is carried out 5/7 days after the contamination, in comparison with the control plants.

Peronospora parasitica = assay: Efficacy against Peronospora parasitica; type: in vivo; settings: 330 ppm; comparison compound of WO 01/11965

Structure (SMILES)	effectiveness on Alternaria brassicae (Alternaria brassicae)	effectiveness on Botrytis cinerea (Botrytis cinerea)	efficacy against Peronospora parasitica (Peronospora parasitica)
O=C(Cc1cccs1)NCc1ncc(C(F)(F)F)cc1Cl [compound 101, N-{[3-chloro-5-(trifluoromethyl)-2-pyridinyl]methyl}-5-thienylacetamide]	poor efficacy	no efficacy	no efficacy
CCNC(=O)C(Cc1ncc(C(F)(F)F)cc1Cl)NC(=O)c1ccc(Cl)cc1 (stereo not drawn) [compound 306, N-{1-ethylcarbamoyl-2-[3-chloro-5-(trifluoromethyl)-2-pyridinyl]ethyl}-4-chlorobenzamide]		zero effectiveness	
CCNC(=O)C(Cc1ncc(C(F)(F)F)cc1Cl)NC(=O)c1ccccc1Br (stereo not drawn) [compound 310, N-{1-ethylcarbamoyl-2-[3-chloro-5-(trifluoromethyl)-2-pyridinyl]ethyl}-2-bromobenzamide]		zero effectiveness	
CNC(=O)C(Cc1ncc(C(F)(F)F)cc1Cl)NC(=O)c1ccc(-c2ccccc2)cc1 (stereo not drawn) [compound 316, N-{1-methylcarbamoyl-2-[3-chloro-5-(trifluoromethyl)-2-pyridinyl]-ethyl}-4-phenylbenzamide]	poor effectiveness	zero effectiveness	
CCNC(=O)C(Cc1ncc(C(F)(F)F)cc1Cl)NC(=O)c1cccc([N+](=O)[O-])c1 (stereo not drawn) [compound 307, N-{1-ethylcarbamoyl-2-[3-chloro-5-(trifluoromethyl)-2-pyridinyl]ethyl}-3-nitrobenzamide]	poor effectiveness	zero effectiveness	
CNC(=O)C(Cc1ncc(C(F)(F)F)cc1Cl)NC(=O)c1ccc(OC)cc1 (stereo not drawn) [compound 315, N-{1-methylcarbamoyl-2-[3-chloro-5-(trifluoromethyl)-2-pyridinyl]ethyl}-4-methoxybenzamide]		zero effectiveness	
CCNC(=O)C(Cc1ncc(C(F)(F)F)cc1Cl)NC(=O)c1ccccc1 (stereo not drawn) [compound 304, N-{1-ethylcarbamoyl-2-[3-chloro-5-(trifluoromethyl)-2-pyridinyl]-ethyl}-benzamide]		zero effectiveness	
CNC(=O)C(Cc1ncc(C(F)(F)F)cc1Cl)NC(=O)c1ccccc1 (stereo not drawn) [compound 314, N-{1-methylcarbamoyl-2-[3-chloro-5-(trifluoromethyl)-2-pyridinyl]ethyl}-benzamide]		zero effectiveness	
